Results on five molecules are retold here after patent publication US11357777B2, “Use of sGC stimulators for the treatment of nonalcoholic steatohepatitis (NASH)” (Cyclerion Therapeutics, Inc., priority 2016, dated 2022).

Entries after “also recorded” stand apart in the source; their conditions may differ. Where two headings read alike, the source gives them in different places.

Data set [1] deals with primary white adipocytes. The conditions noted are these: cited from earlier work.
The test system of data set [2] is WT mice fed a high fat diet (HFD). The conditions noted are these: cited from earlier work.
Data set [3] relates to human brown adipocytes. The conditions noted are these: cited from earlier work.
Data set [4] concerns alpha-SMA (alpha-smooth muscle actin) mRNA expression. Nature of the data set: CCl4-induced changes in liver fibrosis marker in C57BL/6 mice. Type of data set: in vivo. The procedure:
A pilot study using male C57BL/6 mice was carried out to explore the changes in liver fibrosis biomarker after one single injection of carbon tetrachloride (CCl4) given by intraperitoneal (IP) administration and the effect of several substances, including an sGC stimulator, in this model. Injection of CCl4 in mice results in elevation of alpha-SMA (alpha-smooth muscle actin) mRNA expression and this can be used as a biomarker of fibrosis in the liver. A reduction in the expression levels of this biomarker and reversal towards the normal levels, upon administration of an sGC stimulator, can be used to assess the potential utility of the compound in the treatment of liver fibrosis.
Mice used were 8 weeks old at receipt, healthy, and unused in other experimental procedures. Housing and care were as specified in the USDA Animal Welfare Act (9 CFR, Parts 1, and 3) and as described in the Guide for the Care and Use of Laboratory Animals from the National Research Council. Environmental conditions in housing rooms were set at the following ranges for acclimation and naive groups: temperature: 68±5° F. […], humidity: 50±:20%; light cycle: 12 hour light/12-hour dark; air changes: ten or more changes per hour with 100% HEPA filtered fresh air. Mice were given regular chow and water ad libitum and were not fasted overnight prior to compound administration.
CCl4 was dosed once to all animals, via intraperitoneal administration (IP) at a concentration of 15 μl (dissolved in 85 μl of corn or olive oil) and a dose volume of 100 μl per 30 g of mouse. Compound A was dosed to mice via oral administration (PO, by oral gavage), BID for 3 days at a concentration of 3 mg/mL (0.5% Methylcellulose) and a dose volume of […]. The single dose of CCl4 was administered two hours after the first dose of Compound A. The second dose of Compound A was administered 7 hours after the first dose. After three days of dosing, the animals were sacrificed and plasma and liver samples obtained for analysis.
Total RNA was extracted from isolated tissues by adding 1 ml Trizol and a stainless steel bead to each sample, and homogenized using a TissueLyser II at the highest speed (30 Hz) for 2 minutes at room temperature. After homogenization, 200 μl chloroform was added to each homogenized sample. The homogenate was vortexed briefly and left in an upright position at room temperature for 2-5 minutes until phase separation became visible by eye. Samples were centrifuged for 15 minutes at the highest speed (13,200 rpm) at 4° C. in an Eppendorf centrifuge.
After 15 minutes at the highest speed (13,200 rpm) centrifugation at 4° C., the supernatant of each sample (˜500 μl) was transferred into a new RNase-free tube. […]

Data set [5] in a line: Distribution of sGC stimulators in tissues, rats (liver and plasma by LC-MS/MS). The settings on record: Wistar, rat, 2 h post fifth dose, male rats, read-out: total Liver:Plasma ratio. Type of data set: in vivo. The procedure:
The purpose of this experiment was to determine compound concentrations in the plasma and tissues of animals dosed with sGC stimulators for 5 days Q.D.
In a first experiment, the sGC stimulator Compound B (described previously in Example 2) was dosed for 5 Days Q.D. to male Wister rats. Rats were divided into four study groups and dosed according to the below table:
The animals were dosed daily for five consecutive days according the table above. On each day of dosing, frozen aliquots of each dosing solution were thawed and the animals were weighed and dosed accordingly. On day 5, two hours post the fifth dose, blood was collected by orbital bleed. Blood samples were collected in EDTA tubes pre-loaded with 5 μL of 100 mM IBMX Plasma was be separated by centrifugation for 10 minutes at 4° C. and then stored at −80° C.
A Ketamine/Xylazine/pbs solution as a 5:1:4 ratio was administered I.P. at 1 ul per gram. Once the rat was fully anesthetized (as determined by checking its reflexes) and while the heart was still beating, a needle was inserted into the left ventricle. Approximately 20 mls of PBS/IBMX/heparin solution were then perfused. The right atrium was snipped, and perfusion continued for approximately 10 additional mls (30 mls total). At this point, the femoral artery was snipped and perfusion was continued until there was no longer blood (only clear fluid) collecting in the abdominal cavity. Several tissues, including liver, were isolated and weighed followed by snap freezing.
A second separate and similar experiment was carried out with Compound C. The structure of Compound C is depicted below. The preparation and characterization of this compound was described in patent application publication WO2014144100, published 18 Sep. 2014.
For this second experiment, rats were divided into four study groups and dosed according to the below table:
Samples were analyzed using liquid chromatography (LC) with tandem mass spectrometric detection (MS/MS) using positive electrospray ionization. The standard curve range was from 0.1 to 400 ng/mL. […]
In order to prepare the tissues for measurement, the naïve livers and the livers isolated after treatment were removed from the −80° C. freezer and placed on liquid nitrogen. The liver weight was recorded and then the tissue placed in a Geno grinding vial containing two 7/16″ steel beads. […] Approximately 200 mg of tissue from each sample was weighed and recorded. […] The samples were analyzed by LC-MS/MS.
Total liver and plasma concentrations were measured and liver concentrations were corrected for total liver weight. Liver: Plasma ratios were determined by dividing liver compound concentration by the plasma compound concentration. […]

Data set [6] concerns OB/OB mice. The conditions noted are these: cited from earlier work.
In data set [7] the test system is rat animal model of NASH. The conditions noted are these: cited from earlier work.
The mark [8] stands for this setting: 8 weeks at 300 mg/kg/24 hours in food and intraperitoneally at 1 mg/kg.

For the molecule `Nc1nc(-c2nn(Cc3ccccc3F)c3ncccc23)nc(N)c1N1CCOCC1` [BAY 41-8543], the “browning of primary white adipocytes” value in data set [1] is on record as “induces ‘browning’; also recorded: induces “browning””. Also, in data set [2] (setting [8]), the “lipid uptake into BAT” value is “enhances” and the whole-body energy expenditure result was “increases”. For the same molecule, in data set [2] (WT mice fed a HFD, obese phenotype, compared to mice fed regular chow), the “triglyceride content in the liver” value was “significant reduction”. Further, in data set [2] (mouse, in vivo), the diabetic phenotype entry is “improves”; the “diet-induced weight gain and liver steatosis” value is on record as “protects against”; the “weight loss in established obesity” value was “induces weight loss”. In addition, in data set [3], the “differentiation of human brown adipocytes” value is reported as “enhances”.

With `NC(=O)[C@@](O)(CNc1nc(-c2cc(-c3ccon3)n(Cc3ccccc3F)n2)ncc1F)C(F)(F)F` [Compound A], in data set [4] (30 mg/kg dose), the “relative reduction of the increased alpha-SMA mRNA expression levels” value is given as “about 66%”. Also, the “reduction of alpha-SMA expression compared with pirfenidone-treated samples” value in data set [4] (PO BID for 3 days, single IP CCl4) is listed as “significantly more pronounced”. The “reduction of elevated levels of alpha-SMA expression compared to vehicle” value in data set [4] (PO BID for 3 days, single IP CCl4, vs vehicle (0.5% methyl cellulose)) is on record as “statistically significant reduction”.

On to `NC(=O)[C@](O)(CNc1nc(-c2cc(-c3ccon3)n(Cc3ccccc3F)n2)ncc1F)C(F)(F)F` [Compound C], for which the Kp in data set [5] (1 mg/kg PO Q.D. 5 days) came to 6; in data set [5] (10 mg/kg PO Q.D. 5 days), 8.

As for `CC(=O)N[C@@H](CSN=O)C(=O)O` [SNAP, S-Nitroso-N-acetylcysteine], in data set [6], the “effect on NASH” value is “prevent and reverse NASH”. Also, the “onset of NASH” value in data set [7] is “prevent the onset of NASH”.

With `Cc1ccc(=O)n(-c2ccccc2)c1` [pirfenidone, reference compound], in data set [4] (400 mg/kg dose), the “relative reduction of the increased alpha-SMA mRNA expression levels” value is “about 20%”.
